Data from patent US20040142048A1, “Compositions based on proanthocyanadin-catechin synergies for prevention and treatment of cancer” (priority 2004, published 2004).

Columns and labels:
[1] = Clearance of EGCg from the blood; settings: in vivo
cancer cells = assay: Effect of EGCg on cancer cell growth and apoptosis; format: cell-based

## (−)-epigallocatechin gallate [EGCg]
[1]
  clearance from the blood: rapidly cleared from the blood and metabolized
Cancer cells
  time cancer cells must be inhibited from growing before EGCg-induced apoptosis occurs: 48 to 72 h
Cancer cells; 10^−7 M EGCg every two hours during the day
  growth of cancer cells challenged with EGCg: growth is inhibited
Cancer cells; EGCg removed, cells resume normal rates of growth
  reversibility of the effect on cancer cell growth: reversible
